Reference: US20260158014A1, “METHODS OF ADMINISTERING VOXELOTOR” (Global Blood Therapeutics, Inc., priority 2021, published 2026)
“Also recorded” adds a separate entry of the source.

How the values were obtained:
[1] = Excretion of radiolabeled voxelotor; assay type: in vivo
rat = assay: Rat Comet assay; details: in vivo
pregnant rats [2] = assay: Pre- and postnatal development study in rats; assay type: in vivo, rat
Description: In a pre- and postnatal development study, voxelotor was administered orally to pregnant rats at 15, 50 and 250 mg/kg/day (gestation day 6 through lactation day 20). Maternal gestational body weights were decreased at 250 mg/kg/day, which continued to the end of lactation.

[3] = Clinical DDI: acid reducing agent omeprazole on voxelotor; details: in vivo
pregnant rats [4] = assay: Embryo-fetal development study in rats; assay type: in vivo, rat; details: oral 15, 50, 250 mg/kg/day, gestation days 7 through 17
Description: (§1) In embryo-fetal development studies, voxelotor was administered orally to pregnant rats at 15, 50, and 250 mg/kg/day (gestation days 7 through 17) and rabbits at 25, 75, and 150 mg/kg/day (gestation days 7 through 19) through organogenesis.

CYP2C8 = biological target: T1, CYP2C8 (Homo sapiens, UniProt P10632); assay: Effect of voxelotor on CYP450 enzymes in vivo: CYP2C8
T1 construct: endogenous in cells; host or cells: human subjects (in vivo)

[5] = Probe-substrate DDI study: voxelotor exposure and safety in healthy subjects; assay type: in vivo, human
Description: (§2) The effect of voxelotor on the pharmacokinetics (PK) of a single dose of caffeine, warfarin sodium, omeprazole, and midazolam hydrochloride, which are probe substrates for cytochrome P450 (CYP)1A2, CYP2C9, CYP2C19, and CYP3A4, respectively, were studied in healthy subjects. During Period 1, subjects received a single dose of caffeine 100 mg, warfarin sodium 10 mg+vitamin K 10 mg, omeprazole 20 mg, and midazolam hydrochloride 2 mg on Day 1. During Period 2, subjects received voxelotor 900 mg QD on Days 1 and 2 followed by 600 mg QD on Day 3, a single dose of caffeine 100 mg, warfarin sodium 10 mg+vitamin K 10 mg, omeprazole 20 mg, and midazolam hydrochloride 2 mg on Day 4, and voxelotor 600 mg QD on Days 4 through 7.
(§3) Whole blood and plasma concentrations of voxelotor and plasma concentrations of caffeine, paraxanthine, S-warfarin, omeprazole, 5-hydroxyomeprazole, midazolam, and 1-hydroxymidazolam were determined using validated assays.

[6] = Effect of food (high-fat, high-calorie meal); assay type: in vivo; details: high-calorie meal vs fasted
pregnant rabbits = assay: Embryo-fetal development study in rabbits; assay type: in vivo, rabbit; details: oral 25, 75, 150 mg/kg/day, gestation days 7 through 19
Description: as §1

OAT3 = OAT3 (Homo sapiens, UniProt Q8TCC7); assay: In vitro transporter study; assay type: in vitro ADME
OCT2 = OCT2 (Homo sapiens, UniProt O15244); assay: In vitro transporter study; assay type: in vitro ADME
BCRP = BCRP (Homo sapiens, UniProt Q9UNQ0); assay: In vitro transporter study; assay type: in vitro ADME
[7] = Tablet for oral suspension versus oral tablet exposure in healthy subjects; assay type: in vivo, human
CYP2D6 = biological target: T2, CYP2D6 (Homo sapiens, UniProt P10635); assay: Effect of voxelotor on CYP450 enzymes in vivo: CYP2D6
T2 construct: endogenous in cells; host or cells: human subjects (in vivo)

[8] = PK in patients with HbSC genotype; assay type: in vivo, human
CYP3A4 = CYP3A4 (Homo sapiens, UniProt P08684); assay: Clinical probe-substrate DDI study: midazolam; details: human, in vivo
Description: as §2, §3

CYP2C9 = biological target: T3, CYP2C9 (Homo sapiens, UniProt P11712); assay: Clinical probe-substrate DDI study: S-warfarin; assay type: in vivo
T3 construct: endogenous in cells; host or cells: healthy human subjects (in vivo)
Description: as §2, §3

patients with SCD = assay: HOPE Phase 3 trial: efficacy; assay type: in vivo, human
Description: The efficacy and safety of OXBRYTA in SCD was evaluated in HOPE, a Phase 3 randomized, double-blind, placebo-controlled, multicenter trial [NCT 03036813]. In this study, 274 patients were randomized to daily oral administration of OXBRYTA 1,500 mg (N=90), OXBRYTA 900 mg (N=92), or placebo (N=92). Patients were included if they had from 1 to 10 vaso-occlusive crisis (VOC) events within 12 months prior to enrollment and baseline hemoglobin (Hb) ≥5.5 to ≤10.5 g/dL. Eligible patients on stable doses of hydroxyurea for at least 90 days were allowed to continue hydroxyurea therapy throughout the study. Randomization was stratified by patients already receiving hydroxyurea (yes, no), geographic region (North America, Europe, Other), and age (12 to <17 years, 18 to 65 years). The trial excluded patients who received red blood cell (RBC) transfusions within 60 days and erythropoietin within 28 days of enrollment, had renal insufficiency, uncontrolled liver disease, were pregnant, or lactating.
The majority of patients had HbSS or HbS/beta^0-thalassemia genotype (90%) and were receiving background hydroxyurea therapy (65%). The median age was 24 years (range: 12 to 64 years); 46 (17%) patients were 12 to <17 years. Median baseline Hb was 8.5 g/dL (5.9 to 10.8 g/dL). One hundred and fifteen (42%) had 1 VOC event and 159 (58%) had 2 to 10 events within 12 months prior to enrollment. In the OXBRYTA 1,500 mg group, 63 (70%) patients completed the study through Week 72.
Efficacy was based on Hb response rate defined as a Hb increase of >1 g/dL from baseline to Week 24 in patients treated with OXBRYTA 1,500 mg versus placebo. […] No outlier subgroups were observed. The distribution of Hb change from baseline for individual patients completing 24 weeks of treatment with OXBRYTA 1,500 mg or placebo is depicted in FIG. 2.
Additional efficacy evaluation included change in Hb and percent change in indirect bilirubin and percent reticulocyte count from baseline to Week 24 (Table 15).

T3 sequence (P11712 whole entry): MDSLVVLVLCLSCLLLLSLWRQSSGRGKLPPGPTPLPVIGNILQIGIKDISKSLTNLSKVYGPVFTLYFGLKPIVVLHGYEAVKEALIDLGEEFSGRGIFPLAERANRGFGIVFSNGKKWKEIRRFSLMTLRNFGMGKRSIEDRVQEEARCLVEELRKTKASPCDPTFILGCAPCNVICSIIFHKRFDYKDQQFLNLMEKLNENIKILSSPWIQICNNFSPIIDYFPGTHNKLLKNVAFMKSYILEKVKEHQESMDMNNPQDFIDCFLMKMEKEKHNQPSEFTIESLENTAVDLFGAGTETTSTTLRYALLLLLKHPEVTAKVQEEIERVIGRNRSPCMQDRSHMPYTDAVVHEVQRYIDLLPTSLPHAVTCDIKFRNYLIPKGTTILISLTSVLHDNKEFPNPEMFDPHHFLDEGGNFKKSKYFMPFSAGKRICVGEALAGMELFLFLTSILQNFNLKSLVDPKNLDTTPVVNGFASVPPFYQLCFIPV
BCRP, sequence (Q9UNQ0 whole entry, species assumed): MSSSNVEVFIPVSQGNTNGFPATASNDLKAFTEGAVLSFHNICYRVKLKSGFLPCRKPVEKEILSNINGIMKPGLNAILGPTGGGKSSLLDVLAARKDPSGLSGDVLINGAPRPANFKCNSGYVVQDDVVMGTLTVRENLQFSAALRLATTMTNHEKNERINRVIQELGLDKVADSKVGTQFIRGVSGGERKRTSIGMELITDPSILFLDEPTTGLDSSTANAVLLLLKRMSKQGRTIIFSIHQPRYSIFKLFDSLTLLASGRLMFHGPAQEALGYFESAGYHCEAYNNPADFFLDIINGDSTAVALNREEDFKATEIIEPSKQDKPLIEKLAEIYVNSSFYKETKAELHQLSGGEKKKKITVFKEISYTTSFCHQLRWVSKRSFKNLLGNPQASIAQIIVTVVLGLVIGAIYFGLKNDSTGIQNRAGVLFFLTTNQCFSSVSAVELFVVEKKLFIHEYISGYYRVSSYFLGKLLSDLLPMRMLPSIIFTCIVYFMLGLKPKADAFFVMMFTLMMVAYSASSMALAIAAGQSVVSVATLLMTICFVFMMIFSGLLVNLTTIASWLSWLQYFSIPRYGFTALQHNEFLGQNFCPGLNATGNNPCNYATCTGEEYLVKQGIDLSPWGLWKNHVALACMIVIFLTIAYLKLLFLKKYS
CYP3A4, sequence (P08684 whole entry): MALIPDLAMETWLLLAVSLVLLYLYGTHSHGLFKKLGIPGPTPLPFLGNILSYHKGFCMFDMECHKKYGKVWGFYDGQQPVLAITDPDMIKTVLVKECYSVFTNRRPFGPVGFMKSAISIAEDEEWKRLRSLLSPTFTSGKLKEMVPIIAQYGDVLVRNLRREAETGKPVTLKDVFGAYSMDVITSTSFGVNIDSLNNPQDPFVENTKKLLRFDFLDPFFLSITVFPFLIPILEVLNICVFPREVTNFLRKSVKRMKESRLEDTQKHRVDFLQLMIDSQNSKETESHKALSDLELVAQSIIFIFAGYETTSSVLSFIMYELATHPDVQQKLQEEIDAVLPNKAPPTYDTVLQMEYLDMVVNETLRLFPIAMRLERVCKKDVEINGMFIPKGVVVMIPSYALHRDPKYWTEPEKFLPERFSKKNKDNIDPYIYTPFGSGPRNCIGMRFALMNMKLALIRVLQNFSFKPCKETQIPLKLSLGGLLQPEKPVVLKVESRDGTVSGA
OCT2, sequence (O15244 whole entry): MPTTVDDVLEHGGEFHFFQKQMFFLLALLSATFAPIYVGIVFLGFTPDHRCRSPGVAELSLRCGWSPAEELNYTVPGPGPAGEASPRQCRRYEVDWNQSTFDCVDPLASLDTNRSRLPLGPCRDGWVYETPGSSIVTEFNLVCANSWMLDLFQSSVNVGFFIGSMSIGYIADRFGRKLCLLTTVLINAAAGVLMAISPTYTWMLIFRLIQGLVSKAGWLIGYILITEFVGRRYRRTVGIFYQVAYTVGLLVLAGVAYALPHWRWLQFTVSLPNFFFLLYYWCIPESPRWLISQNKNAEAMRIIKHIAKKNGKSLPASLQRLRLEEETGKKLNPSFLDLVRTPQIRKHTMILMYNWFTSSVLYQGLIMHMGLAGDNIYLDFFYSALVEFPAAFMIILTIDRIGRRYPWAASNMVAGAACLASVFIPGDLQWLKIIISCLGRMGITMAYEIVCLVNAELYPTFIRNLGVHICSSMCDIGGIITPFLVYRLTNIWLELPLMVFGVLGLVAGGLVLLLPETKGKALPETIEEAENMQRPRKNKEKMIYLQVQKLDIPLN
T2 sequence (P10635 whole entry): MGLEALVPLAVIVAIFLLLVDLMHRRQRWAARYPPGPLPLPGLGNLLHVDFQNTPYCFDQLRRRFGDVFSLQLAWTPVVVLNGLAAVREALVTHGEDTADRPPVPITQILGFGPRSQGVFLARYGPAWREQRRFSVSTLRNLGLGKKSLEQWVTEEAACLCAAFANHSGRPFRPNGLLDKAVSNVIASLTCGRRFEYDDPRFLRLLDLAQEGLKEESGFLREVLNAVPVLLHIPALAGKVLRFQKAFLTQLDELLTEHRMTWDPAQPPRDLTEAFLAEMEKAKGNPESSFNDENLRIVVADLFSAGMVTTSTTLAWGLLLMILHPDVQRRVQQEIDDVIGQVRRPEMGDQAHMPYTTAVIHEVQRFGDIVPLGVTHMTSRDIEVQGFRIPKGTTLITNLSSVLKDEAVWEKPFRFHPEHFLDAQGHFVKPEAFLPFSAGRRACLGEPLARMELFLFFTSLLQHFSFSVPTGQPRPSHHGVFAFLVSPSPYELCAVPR
OAT3, sequence (Q8TCC7 whole entry, species assumed): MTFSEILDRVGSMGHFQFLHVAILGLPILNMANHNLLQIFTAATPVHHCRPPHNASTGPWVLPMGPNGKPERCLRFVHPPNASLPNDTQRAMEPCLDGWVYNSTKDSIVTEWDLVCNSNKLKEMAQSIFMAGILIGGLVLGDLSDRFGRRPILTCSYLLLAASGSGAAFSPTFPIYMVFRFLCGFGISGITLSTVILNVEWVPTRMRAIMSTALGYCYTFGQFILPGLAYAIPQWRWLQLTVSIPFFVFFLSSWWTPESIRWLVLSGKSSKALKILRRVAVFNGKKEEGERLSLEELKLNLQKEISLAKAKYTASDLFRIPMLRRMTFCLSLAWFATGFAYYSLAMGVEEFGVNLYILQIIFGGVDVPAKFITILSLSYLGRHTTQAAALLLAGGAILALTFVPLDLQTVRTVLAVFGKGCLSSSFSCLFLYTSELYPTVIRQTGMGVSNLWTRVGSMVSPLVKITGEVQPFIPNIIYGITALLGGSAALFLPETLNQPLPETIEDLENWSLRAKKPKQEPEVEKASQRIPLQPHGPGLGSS
T1 sequence (P10632 whole entry): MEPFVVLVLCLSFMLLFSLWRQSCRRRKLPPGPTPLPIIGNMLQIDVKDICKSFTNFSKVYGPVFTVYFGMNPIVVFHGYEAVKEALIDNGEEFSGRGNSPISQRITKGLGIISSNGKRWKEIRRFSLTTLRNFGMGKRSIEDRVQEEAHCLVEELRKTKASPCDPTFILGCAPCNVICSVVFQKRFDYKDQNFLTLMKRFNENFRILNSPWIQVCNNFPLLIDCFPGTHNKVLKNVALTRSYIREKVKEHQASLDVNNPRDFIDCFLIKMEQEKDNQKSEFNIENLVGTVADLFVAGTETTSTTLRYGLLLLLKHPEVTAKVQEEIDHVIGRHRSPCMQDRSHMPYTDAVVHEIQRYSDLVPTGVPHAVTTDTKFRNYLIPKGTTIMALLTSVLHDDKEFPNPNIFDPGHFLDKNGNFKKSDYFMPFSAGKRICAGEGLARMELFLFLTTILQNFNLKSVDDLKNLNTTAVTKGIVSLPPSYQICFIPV

Compound: CC(C)n1nccc1-c1ncccc1COc1cccc(O)c1C=O [voxelotor, 2-hydroxy-6-((2-(1-isopropyl-1H-pyrazol-5-yl)pyridin-3-yl)methoxy)benzaldehyde]
- dose and metabolites excreted in urine [1]: 35.5%
- dose and metabolites excreted into feces [1]: approximately 62.6%
- dose excreted unchanged in feces [1]: 33.3%
- dose excreted unchanged in urine [1]: 0.08%
- genotoxicity, rat Comet assay (rat): not genotoxic
- maternal gestational body weights (pregnant rats [2]; 250 mg/kg/day, gestation day 6 through lactation day 20): decreased
- findings in offspring (pregnant rats [2]; maternal dose 250 mg/kg/day): reduced survival and reduced body weights
- exposure at 250 mg/kg/day relative to exposure in patients at recommended dose (pregnant rats [2]; maternal dose with offspring effects): approximately 2.8 times
- effect of omeprazole (proton pump inhibitor) on voxelotor exposure [3]: did not alter voxelotor exposure
- developmental outcome (pregnant rats [4]): no adverse developmental effects; also recorded: no evidence of adverse developmental outcomes
- CYP2C8 inhibition in vivo (CYP2C8): not
- safety and tolerability alone and with probe substrates [5]: safe and well tolerated
- increase in AUC with food, plasma [6]: 42%
- increase in AUC with food, whole blood [6]: 42%
- increase in Cmax with food, plasma [6]: 95%
- increase in Cmax with food, whole blood [6]: 45%
- developmental outcome (pregnant rabbits): no adverse developmental effects; also recorded: no evidence of adverse developmental outcomes
- OAT3 inhibition (OAT3): not an inhibitor
- OCT2 inhibition (OCT2): not an inhibitor
- BCRP inhibition (BCRP): not an inhibitor
- substrate of BCRP (BCRP): not a substrate
- exposures, tablet for oral suspension dispersed in water vs oral tablet swallowed whole [7]: comparable
- CYP2D6 inhibition in vivo (CYP2D6): not
- steady state whole blood AUC higher in HbSC vs HbSS genotype ([8]; HbSC n=11, HbSS n=220): 50%
- steady state whole blood Cmax higher in HbSC vs HbSS genotype ([8]; HbSC n=11, HbSS n=220): 45%
- steady state plasma AUC higher in HbSC vs HbSS genotype ([8]; human, in vivo): 23%
- steady state plasma Cmax higher in HbSC vs HbSS genotype ([8]; human, in vivo): 15%
- CYP3A4 inhibition in vivo (CYP3A4): inhibits
- CYP3A4 inhibitor classification (CYP3A4): moderate inhibitor
- effect of voxelotor on PK of CYP2C9 probe substrate S-warfarin (CYP2C9; healthy subjects, voxelotor 900/600 mg QD, warfarin sodium 10 mg): no clinically meaningful effect
- CYP2C9 inhibition in vivo (CYP2C9; human, in vivo): not
- adjusted mean change from baseline to Week 24 in hemoglobin (patients with SCD; 1,500 mg QD, N=90): 1.1 g/dL
- adjusted mean percent change from baseline to Week 24 in indirect bilirubin (patients with SCD; 1,500 mg QD, N=90): −29.1%
- adjusted mean percent change from baseline to Week 24 in percent reticulocyte count (patients with SCD; 1,500 mg QD, N=90): −18.0%
- Hb response rate (Hb increase >1 g/dL from baseline to Week 24) (patients with SCD; 1,500 mg once daily, 46/90, adults and pediatric patients 12 years and older): 51%
